Source: patent publication US6451804B1, “Heteroalkylamino-substituted bicyclic nitrogen heterocycles” (Syntex (U.S.A.) LLC, priority 1999, dated 2002)
Structures can show the parent of a compound that is named as a salt.

SMILES	melting point [°C]
CC(=O)O[C@H]1CC[C@H](Nc2ncc3c(n2)NC(=O)N(c2ccccc2Cl)C3)CC1 (as salt: hydrochloride) [Compound 4-13, 7-(trans-4-acetyloxycyclohexylamino)-3-(2-chlorophenyl)-3,4-dihydropyrimido[4,5-d]pyrimidin-2(1H)-one]	> 300
COC(=O)CN1C(=O)N(c2ccccc2Cl)Cc2cnc(N[C@H]3CC[C@H](O)CC3)nc21 [Compound 3-49, 3-(2-chlorophenyl)-7-(trans-4-hydroxycyclohexylamino)-1-methoxycarbonylmethyl-3,4-dihydropyrimido[4,5-d]pyrimidin-2(1H)-one]	212 to 215
O=CO[C@H]1CC[C@H](Nc2ncc3c(n2)NC(=O)N(c2ccccc2Cl)C3)CC1 [Compound 4-15, 3-(2-chlorophenyl)-7-(trans-4-formyloxycyclohexylamino)-3,4-dihydropyrimido[4,5-d]pyrimidin-2(1H)-one]	> 300
CS(=O)(=O)N[C@H]1CC[C@H](Nc2ncc3c(n2)NC(=O)N(c2ccccc2Cl)C3)CC1 [Compound 4-28, 3-(2-chlorophenyl)-7-[trans-4-(methanesulfonylamino)cyclohexylamino]-3,4-dihydropyrimido[4,5-d]pyrimidin-2(1H)-one]	292.8 to 293.2
C[C@@H](CO)Nc1ncc2c(n1)N(C1CCNCC1)C(=O)N(c1ccccc1Cl)C2 (as salt: hydrochloride)	244 to 248
N#CCN1C(=O)N(c2ccccc2Cl)Cc2cnc(N[C@H]3CC[C@H](O)CC3)nc21 [Compound 3-55, 3-(2-chlorophenyl)-7-(trans-4-hydroxycyclohexylamino)-1-cyanomethyl-3,4-dihydropyrimido[4,5-d]-pyrimidin-2(1H)-one]	130.8
C[C@@H](O)[C@H](CO)Nc1ncc2c(n1)N(C)C(=O)N(c1ccccc1Cl)C2 (stereo in doubt) (as salt: hydrochloride) [Compound 1-13, 3-(2-chlorophenyl)-7-((1S,2R)-2-hydroxy-1-hydroxymethyl-propylamino)-1-methyl-3,4-dihydropyrimido-[4,5-d]pyrimidin-2(1H)-one]	199 to 204
O=C1N(c2ccccc2Cl)Cc2cnc(N[C@H]3CC[C@H](O)CC3)nc2N1Cc1ccccc1 (as salt: hydrochloride) [Compound 3-48, 1-benzyl-3-(2-chlorophenyl)-7-(trans-4-hydroxycyclohexylamino)-3,4-dihydropyrimido[4,5-d]pyrimidin-2(1H)-one]	218.5 to 221
CCOCC(COCC)N1C(=O)N(c2ccccc2Cl)Cc2cnc(N[C@H](C)CO)nc21 (as salt: hydrochloride) [Compound 3-21, (R)-3-(2-chlorophenyl)-7-[(2-hydroxy-1-methylethyl)amino]-1-(2-ethoxy-1-ethoxymethylethyl)-3,4-dihydropyrimido[4,5-d]pyrimidin-2(1H)-one]	169.7 to 175.1
COC(=O)O[C@H]1CC[C@H](Nc2ncc3c(n2)NC(=O)N(c2ccccc2Cl)C3)CC1 (as salt: hydrochloride) [Compound 4-20, 3-(2-chlorophenyl)-7-(trans-4-methoxycarbonyloxycyclohexylamino)-3,4-dihydropyrimido[4,5-d]pyrimidin-2(1H)-one]	> 260
Cc1ccccc1N1Cc2cnc(NC3CCN(C[C@@H](O)CO)CC3)nc2N(C)C1=O (as salt: hydrochloride) [Compound 2-14, (R)-7-[1-(2,3-dihydroxypropyl)piperidin-4-ylamino]-1-methyl-3-ortho-tolyl-3,4-dihydropyrimido[4,5-d]pyrimidin-2(1H)-one]	195 to 208
N#CCN1CCC(CNc2ncc3c(n2)NC(=O)N(c2ccccc2Cl)C3)CC1 (as salt: hydrochloride) [Compound 2-22, 3-(2-chlorophenyl)-7-[(1-cyanomethylpiperidin-4-ylmethyl)amino]-3,4-dihydropyrimido[4,5-d]pyrimidin-2(1H)-one]	207.2 to 207.7
CN1C(=O)N(c2ccccc2Cl)Cc2cnc(NC3CCC(=O)CC3)nc21 (as salt: hydrochloride) [Compound 3-46, 3-(2-chlorophenyl)-7-(4-oxo-cyclohexylamino)-1-methyl-3,4-dihydropyrimido[4,5-d]pyrimidin-2(1H)-one]	233.4 to 236.3
O=C(O)CN1C(=O)N(c2ccccc2Cl)Cc2cnc(N[C@H]3CC[C@H](O)CC3)nc21 [Compound 3-53, 3-(2-chlorophenyl)-7-(trans-4-hydroxycyclohexylamino)-1-hydroxycarbonylmethyl-3,4-dihydropyrimido[4,5-d]pyrimidin-2(1H)-one]	230 to 240
CN(C)C(=O)CN1CCC(CNc2ncc3c(n2)NC(=O)N(c2ccccc2Cl)C3)CC1 (as salt: hydrochloride) [Compound 2-19, 3-(2-chlorophenyl)-7-[(1-dimethylaminocarbonylmethylpiperidin-4-ylmethyl)amino]-3,4-dihydropyrimido[4,5-d]pyrimidin-2(1H)-one]	210.2 to 214.4
Cc1ccccc1N1Cc2cnc(NC3CCN(Cc4ccccc4)CC3)nc2N(C)C1=O (as salt: hydrochloride) [Compound 2-9, 7-(1-benzylpiperidin-4-ylamino)-1-methyl-3-ortho-tolyl-3,4-dihydropyrimido[4,5-d]pyrimidin-2(1H)-one]	253 to 253.9
O=C1N(c2ccccc2Cl)Cc2cnc(N[C@H]3CC[C@H](O)CC3)nc2N1CCO [Compound 3-56, 3-(2-chlorophenyl)-7-(trans-4-hydroxycyclohexylamino)-1-(2-hydroxyethyl)-3,4-dihydropyrimido[4,5-d]pyrimidin-2(1H)-one]	96.6 to 122.8
O=C(O)CN1CCC(CNc2ncc3c(n2)NC(=O)N(c2ccccc2Cl)C3)CC1 (as salt: hydrochloride) [Compound 2-24, 3-(2-chlorophenyl)-7-[(1-hydroxycarbonylmethylpiperidin-4-ylmethyl)amino]-3,4-dihydropyrimido[4,5-d]pyrimidin-2(1H)-one]	215 to 219
O=C1CCC(Nc2ncc3c(n2)NC(=O)N(c2ccccc2Cl)C3)CC1 (as salt: hydrochloride) [Compound 4-23, 3-(2-chlorophenyl)-7-(4-oxo-cyclohexylamino)-3,4-dihydropyrimido[4,5-d]pyrimidin-2(1H)-one]	204 to 210
NC(=O)CN1CCC(CNc2ncc3c(n2)NC(=O)N(c2ccccc2Cl)C3)CC1 (as salt: hydrochloride) [Compound 2-23, 3-(2-chlorophenyl)-7-[(1-aminocarbonylmethylpiperidin-4-ylmethyl)amino]-3,4-dihydropyrimido[4,5-d]pyrimidin-2(1H)-one]	229.9 to 232.2
Cc1ccccc1N1Cc2cnc(NC3CCN(CCO)CC3)nc2N(C)C1=O [Compound 2-13, 7-[1-(2-hydroxyethyl)-piperidin-4-ylamino]-1-methyl-3-ortho-tolyl-3,4-dihydropyrimido[4,5-d]pyrimidin-2(1H)-one]	250 to 257
O=C1Nc2nc(NCC3CCC(O)CC3)ncc2CN1c1ccccc1Cl (stereo not shown) (as salt: hydrochloride) [Compound 4-17, 3-(2-chlorophenyl)-7-[(4-hydroxycyclohexylmethyl)amino]-3,4-dihydropyrimido[4,5-d]pyrimidin-2(1H)-one]	208.3 to 217.9
